From patent US8609329B2, “FRET-based assay for screening modulators of receptor cycling” (Albany Medical College, priority 2007, dated 2013)

Test system: LDL-R-LDL-C complexes
Test: Automated FRET imaging of LDL-C-BODIPY/LDL-C-DiI internalized into MDCK cells (organization of LDL-R/LDL-C complexes)
Format: cell-based
Procedure: MDCK cells were bound with LDL-C-BODIPY and LDL-C-DiI for 2 h at 4° C. or incubated for various times (5-8 min and 20-30 min) at 37° C. in the presence or absence of BafilomycinA 1 (BafA1), a specific vacuolar-type ATPase inhibitor. Images were collected using a LSM Zeiss 510META confocal microscope with 63×1.4NA oil lens, 512×512 pixel resolution, no filter, 2× zoom. Then images were processed using an integrated and automated ImageJ plugin, which includes background removal, PFRET algorithm, ROI selection and E % analysis (48). […]
First, images were background-subtracted and processed by PFRET software, which removed donor and acceptor SBT pixel-by-pixel on the basis of matched fluorescence levels between the double-label specimen and single-label reference specimens, using seven images; two single-label donor reference images (donor excitation/donor channel and acceptor channel); two single-label acceptor reference images (donor and acceptor excitation, both in the acceptor channel); three double-label images (donor excitation/donor and acceptor channel, acceptor excitation/acceptor emission. Elangovan et al., 2003; Wallrabe et al., 2003a,b). […] The pixel-by-pixel correction used to generate the processed FRET (PFRET) image was actually based on the average value of narrow fluorescence rangers, for more efficient running of the correction algorithm (Elangovan et al., 2003). […]

SMILES: CO/C1=C\C(C)=C\[C@@H](C)[C@@H](O)[C@@H](C)C/C(C)=C/C=C/[C@H](OC)[C@@H]([C@@H](C)[C@@H](O)[C@H](C)[C@@]2(O)C[C@@H](O)[C@H](C)[C@@H](C(C)C)O2)OC1=O [BafA1, Bafilomycin A1]
- organization of LDL-R-LDL-C complexes (clustered vs. random) (30 min internalization at 37° C., 100 nM BafA1): clustered organization
- dependency of E % on acceptor levels (LDL-C internalized at 37° C. for 30 min in the presence of 100 nM BafA1): clear independency from acceptor
